Assay results taken from publication PMC10449633 (Nature Chemical Biology, 2023).
Numbered stars: 1 amine (or outer) side, 2 acyl side, 3 side chain; on linkers, the order of the positions; unused ones are H or OH. Square brackets hold non-standard residues; d marks the D form. Peptide text beside a SMILES is read from it. ξ: configuration not given here. X1 = CN(C(Cc1cn(Cc2ccc(Br)cc2)c2ccccc12)C(=O)[*:2])[*:1]; ξAla(CF3) = NC(CC(F)(F)F)C(=O)O; X2 = N#CCCC(O[*:1])C(=O)[*:2]; NMeL = CN[CH](CC(C)C)C(=O)O; NMeA = CN[CH](C)C(=O)O

System: SARS-CoV-2 spike protein
Format: cell-based

With `CC(C)CC1NC(=O)C(Cc2cn(Cc3ccc(Br)cc3)c3ccccc23)N(C)C(=O)C(CC(F)(F)F)NC(=O)C(CC(C)C)N(C)C(=O)C(CC(F)(F)F)NC(=O)C(CCC#N)OC(=O)C(C)N(C)C1=O` (stereo not shown) [KZR-8445] (cyclo([X1]L[NMeA][X2][ξAla(CF3)][NMeL][ξAla(CF3)]); configuration not given here) the “biogenesis of the Spike protein” value was “inhibits”.
